Assay results taken from patent US20230392153A1, “SUMO Targeting Morpholinos as both Enhancers of Anti-Cancer Effects of Chemotherapeutic Treatments and Preventative Agents Against the Establishment of Chemoresistance” (Board of Regents, The University of Texas System, priority 2022, published 2023).
{OctaGua} = octa-guanidine dendrimer (vivo-morpholino)

System: mature mRNA transcripts derived from the SUMO2 gene, S2V1 and S2V2
Assay: qRT-PCR quantification of SUMO2 transcript variants (CNE100 ng) in A549 cells treated with vivo-morpholinos
Assay type: cell-based, human
Details: 4 μM, 24 hours
Protocol: Made to order vivo-morpholinos are readily available and can be procured from Gene Tools, LLC (Philomath, OR) based on specified embodiments of this disclosure, and reconstituted at a final concentration of 400 μM using RNase & DNase-free milli-Q water. The reconstituted vivo-morpholinos were kept in solution at room temperature. To test the vivo-morpholinos, A549 cells were seeded in 6 well plates at a density of 0.5×10^6 cells per well in a final volume of 3 mL per well. The day after cell seeding, the vivo-morpholinos were diluted down to a final concentration of 4 μM and a final volume of 2 mL using 1× Opti-MEM™ I (Thermo Fisher Scientific, Waltham, MA), the plating media was discarded using vacuum suction, and the diluted vivo-morpholinos were immediately added to the cells (2 mL per well). The cells were maintained in the presence of the vivo-morpholinos at 37° C. and 5% CO 2 for another 24 hours and subsequently the cells were collected and processed for RNA isolation. […] RNA quantification was performed using a NanoDrop™ One s Microvolume UV-Vis Spectrophotometer (Thermo Fisher Scientific). Upon quantification, the purified RNA was divided into 9 μL aliquots and stored at −80° C. until used for qRT-PCR. […]
CNE100 ng were calculated using the Cq values obtained in the qRT-PCR reactions indicated above and calibration curves generated using purified RNA produced in vitro corresponding to each of the segments targeted by the primer sets indicated above.
The primer sets used to quantify each of the SUMO2 mature mRNA transcripts are indicated below. […]
The experiments described above were performed four different times. […] In the three subsequent independent experiments, all samples were analyzed in triplicate and the averages were calculated. […]
Referring to FIG. 5, quantitative analysis of the SUMO2 transcript variants present in A549 cells under normal conditions as well as upon a 24 hour treatment with the vivo-morpholinos S2E3Acc and S2E3Don is presented. […]

Substance	effect on the proportion of S2V1:S2V2 present in the cell	decrease in the CNE100 ng of S2V1 (versus normal conditions (untreated)) [fold]
S2E3Acc: Vivo-morpholino, SEQ ID NO: 3, 5′ CCTCATTGACAATCCCTGAACGAGA 3′; targets SUMO2 exon 3 at the splicing acceptor site (CCUCAUUGACAAUCCCUGAACGAGA; all phosphorodiamidate morpholino (PMO), 3' {OctaGua}, T or U not given here)	significative changes	~10
S2E3Don: Vivo-morpholino, SEQ ID NO: 4, 5′ GAGATTTTTTTACCTGTGCAGGTGT 3′; targets SUMO2 exon 3 at the splicing donor site (antisense GAGAUUUUUUUACCUGUGCAGGUGU; all phosphorodiamidate morpholino (PMO), 3' {OctaGua}, T or U not given here)	significative changes	
